Reference: patent publication US10988459B2 (priority 2015, dated 2021)
pKi: −log10 of the molar value.

target: human RIP1 kinase domain (2-375) (Homo sapiens (Human), UniProt Q13546); assay: biochemical; format: biochemical; settings: Table 1; apparent Ki (Morrison tight-binding fit); 50 nM RIP1 kinase domain, 50 uM ATP, 2 hours incubation; read-out: RIP1 Ki
Procedure, shortened: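 50 nM purified kinase domain from baculovirus-infected insect cells, incubated 2 h with compound in 50 mM Hepes pH 7.5, 30 mM MgCl2, 1 mM DTT, 50 uM ATP, 0.002% Brij-35, 0.5% DMSO. ADP formation read by Transcreener FP at 633 nm excitation. Ki^app fitted with the Morrison tight-binding equation.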

Sequence of human RIP1 kinase domain (2-375) (Q13546 2-375): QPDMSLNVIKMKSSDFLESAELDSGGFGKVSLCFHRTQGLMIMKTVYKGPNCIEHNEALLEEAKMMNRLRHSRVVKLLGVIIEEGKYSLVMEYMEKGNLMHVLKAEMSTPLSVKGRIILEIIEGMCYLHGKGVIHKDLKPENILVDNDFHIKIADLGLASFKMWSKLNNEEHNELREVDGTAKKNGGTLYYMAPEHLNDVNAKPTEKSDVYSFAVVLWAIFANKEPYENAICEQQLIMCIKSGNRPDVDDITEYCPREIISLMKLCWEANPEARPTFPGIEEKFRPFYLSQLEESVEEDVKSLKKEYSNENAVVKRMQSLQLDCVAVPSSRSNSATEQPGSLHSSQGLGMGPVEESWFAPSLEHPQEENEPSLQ

**Q.** `CC1CCc2[nH]nc(C(=O)N[C@H]3COc4ccccc4NC3=O)c2C1` (stereo partly drawn) [Example 57, 5-methyl-N-((S)-4-oxo-2,3,4,5-tetrahydrobenzo[b][1,4]oxazepin-3-yl)-4,5,6,7-tetrahydro-1H-indazole-3-carboxamide] was tested. Which pKi did it give?
**A.** Its pKi is 6.56.

**Q.** How did the pKi turn out when `C[C@@H]1CCc2noc(C(=O)N[C@H]3COc4ccccc4N(C)C3=O)c2C1` [Example 71, (R)-5-methyl-N-((S)-5-methyl-4-oxo-2,3,4,5-tetrahydrobenzo[b][1,4]oxazepin-3-yl)-4,5,6,7-tetrahydrobenzo[c]isoxazole-3-carboxamide] was run?
**A.** The pKi was 7.72.

same assay, conditions: Table 5; apparent Ki (Morrison tight-binding fit); 50 nM RIP1 kinase domain, 50 uM ATP, 2 hours incubation; read-out: Ki

**Q.** `COC1CN(Cc2cc3n(n2)CC[C@H](NC(=O)c2ncn(Cc4ccccc4)n2)C(=O)N3C)C1` [Example 781, (S)-1-benzyl-N-(2-((3-methoxyazetidin-1-yl)methyl)-4-methyl-5-oxo-5,6,7,8-tetrahydro-4H-pyrazolo[1,5-a][1,3]diazepin-6-yl)-1H-1,2,4-triazole-3-carboxamide] was tested. Which pKi did it give?
**A.** Its pKi is 6.76.

**Q.** How did the pKi turn out when `CN1C(=O)[C@@H](NC(=O)c2nc3n(n2)C(c2ccccc2)CCC3)COc2ccccc21` (single isomer, unassigned) [Example 791] was run?
**A.** Its pKi is 7.89.

**Q.** With `CN1C(=O)[C@@H](NC(=O)c2ncn(Cc3ccccc3)n2)CCn2nc(CN3CC(F)C3)cc21` (single isomer, unassigned) [Example 726] as the compound, how does the pKi read?
**A.** The pKi was 6.85.

**Q.** How did the pKi turn out when `CN1C(=O)[C@@H](NC(=O)c2ncn(Cc3ccccc3F)n2)CCn2nc(CCN3CC(F)C3)cc21` [Example 770, 1-[(2-fluorophenyl)methyl]-N-[(6S)-2-[2-(3-fluoroazetidin-1-yl)ethyl]-4-methyl-5-oxo-7,8-dihydro-6H-pyrazolo[1,5-a][1,3]diazepin-6-yl]-1,2,4-triazole-3-carboxamide] was run?
**A.** The pKi was 6.47.

same assay, conditions: human RIP1 kinase domain (2-375), 50 uM ATP, 2 hours incubation, Transcreener ADP assay; read-out: RIP1 Ki

**Q.** `CN1C(=O)C(NC(=O)c2cc3c(cn2)cnn3[C@H]2CCOC2)COc2ccccc21` (stereo partly drawn) [Example 156, N-(5-methyl-4-oxo-2,3,4,5-tetrahydrobenzo[b][1,4]oxazepin-3-yl)-1-((S)-tetrahydrofuran-3-yl)-1H-pyrazolo[4,3-c]pyridine-6-carboxamide] was tested. Which pKi did it give?
**A.** Its pKi is 7.17.

**Q.** With `CN1C(=O)[C@@H](NC(=O)c2ncn(Cc3ccccc3)n2)CC[C@@H]2[C@H]1C2(F)F` (single isomer, unassigned) [Example 129] as the compound, how does the pKi read?
**A.** Its pKi is 6.41.

**Q.** How did the pKi turn out when `CC(C)n1ncc2cnc(C(=O)N[C@H]3COc4ccccc4N(C)C3=O)nc21` [Example 122, (S)-1-isopropyl-N-(5-methyl-4-oxo-2,3,4,5-tetrahydrobenzo[b][1,4]oxazepin-3-yl)-1H-pyrazolo[3,4-d]pyrimidine-6-carboxamide] was run?
**A.** The pKi was 7.71.

**Q.** `CN1C(=O)[C@@H](NC(=O)c2ncn(Cc3ccccc3)n2)CCn2nc(C3CC3)cc21` [Example 171, (S)-1-benzyl-N-(2-cyclopropyl-4-methyl-5-oxo-5,6,7,8-tetrahydro-4H-pyrazolo[1,5-a][1,3]diazepin-6-yl)-1H-1,2,4-triazole-3-carboxamide] was tested. Which pKi did it give?
**A.** The pKi was 7.79.

same assay, conditions: human RIP1 kinase domain (2-375), Transcreener ADP assay, 50 uM ATP, 2 hours incubation; read-out: RIP1 Ki

**Q.** `Cc1cc2n(n1)CC[C@H](NC(=O)c1ncn(C(C)c3ccccc3)n1)C(=O)N2C` (stereo partly drawn) [Example 271, N—((S)-2,4-dimethyl-5-oxo-5,6,7,8-tetrahydro-4H-pyrazolo[1,5-a][1,3]diazepin-6-yl)-1-(1-phenylethyl)-1H-1,2,4-triazole-3-carboxamide] was tested. Which pKi did it give?
**A.** Its pKi is 7.03.

**Q.** How did the pKi turn out when `CC(C1CCn2nnc(C(=O)N[C@H]3COc4ccccc4N(C)C3=O)c2C1)C(F)(F)F` (stereo partly drawn) [Example 252, N—((S)-5-methyl-4-oxo-2,3,4,5-tetrahydrobenzo[b][1,4]oxazepin-3-yl)-5-(1,1,1-trifluoropropan-2-yl)-4,5,6,7-tetrahydro-[1,2,3]triazolo[1,5-a]pyridine-3-carboxamide] was run?
**A.** The pKi was 7.15.

**Q.** `CN1C(=O)[C@@H](NC(=O)c2ncn(Cc3cccc(F)c3F)n2)CCn2nc(C3CC3)cc21` [Example 331, (S)—N-(2-cyclopropyl-4-methyl-5-oxo-5,6,7,8-tetrahydro-4H-pyrazolo[1,5-a][1,3]diazepin-6-yl)-1-(2,3-difluorobenzyl)-1H-1,2,4-triazole-3-carboxamide] was tested. Which pKi did it give?
**A.** Its pKi is 7.89.

**Q.** How did the pKi turn out when `CN1C(=O)[C@@H](NC(=O)c2ncn(Cc3c(F)cccc3F)n2)CCn2nc(C3CC3)cc21` [Example 302, (S)—N-(2-cyclopropyl-4-methyl-5-oxo-5,6,7,8-tetrahydro-4H-pyrazolo[1,5-a][1,3]diazepin-6-yl)-1-(2,6-difluorobenzyl)-1H-1,2,4-triazole-3-carboxamide] was run?
**A.** The pKi was 7.57.

**Q.** With `Cc1cc2n(n1)CC[C@H](NC(=O)c1ncn(CC3CC3(F)F)n1)C(=O)N2C` (stereo partly drawn) [Example 262, 1-((2,2-difluorocyclopropyl)methyl)-N—((S)-2,4-dimethyl-5-oxo-5,6,7,8-tetrahydro-4H-pyrazolo[1,5-a][1,3]diazepin-6-yl)-1H-1,2,4-triazole-3-carboxamide] as the compound, how does the pKi read?
**A.** The pKi was 6.29.

same assay, conditions: tight-binding apparent inhibition constant; human RIP1 kinase domain (2-375) 50 nM, 50 uM ATP, 2 hours; read-out: Ki

**Q.** `CN1C(=O)[C@@H](NC(=O)c2ncn(Cc3ncccc3F)n2)CCn2nc(C3CC3)cc21` [Example 655] was tested. Which pKi did it give?
**A.** Its pKi is 6.85.

**Q.** `Cc1cc2n(n1)CC[C@H](NC(=O)c1nc3n(n1)[C@@H](c1ccccc1F)CC3)C(=O)N2C` [Example 666, (5R)-5-(2-fluorophenyl)-N-[(6S)-2,4-dimethyl-5-oxo-7,8-dihydro-6H-pyrazolo[1,5-a][1,3]diazepin-6-yl]-6,7-dihydro-5H-pyrrolo[1,2-b][1,2,4]triazole-2-carboxamide] was tested. Which pKi did it give?
**A.** Its pKi is 7.40.

**Q.** How did the pKi turn out when `CCC(C)(O)c1ccnc(C(=O)N[C@H]2COc3ccccc3N(C)C2=O)c1` (stereo partly drawn) [Example 488, 4-(1-hydroxy-1-methyl-propyl)-N-[(3S)-5-methyl-4-oxo-2,3-dihydro-1,5-benzoxazepin-3-yl]pyridine-2-carboxamide] was run?
**A.** The pKi was 5.74.

**Q.** With `CC(C)[C@H]1CCCc2nc(C(=O)N[C@H]3COc4ccccc4N(C)C3=O)nn21` (single isomer, unassigned) [Example 413] as the compound, how does the pKi read?
**A.** Its pKi is 6.64.

**Q.** `Cc1cc2n(n1)CC[C@H](NC(=O)c1ncc3cnn(-c4ccccn4)c3n1)C(=O)N2C` [Example 632, 1-(2-pyridyl)-N-[(6S)-2,4-dimethyl-5-oxo-7,8-dihydro-6H-pyrazolo[1,5-a][1,3]diazepin-6-yl]pyrazolo[3,4-d]pyrimidine-6-carboxamide] was tested. Which pKi did it give?
**A.** Its pKi is 5.51.

**Q.** `CN1C(=O)[C@@H](NC(=O)c2nc3c(-c4ccccc4)cccn3n2)COc2ccccc21` [Example 568, 8-phenyl-N-[(3S)-5-methyl-4-oxo-2,3-dihydro-1,5-benzoxazepin-3-yl]-[1,2,4]triazolo[1,5-a]pyridine-2-carboxamide] was tested. Which pKi did it give?
**A.** The pKi was 8.09.

**Q.** How did the pKi turn out when `CN1C(=O)[C@@H](NC(=O)c2ncc3c(n2)[C@]2(CCOC2)OC3)COc2ccccc21` (racemic) [Example 694, rac-(7S)-N-[rac-(3S)-5-methyl-4-oxo-2,3-dihydro-1,5-benzoxazepin-3-yl]spiro[5H-furo[3,4-d]pyrimidine-7,3′-tetrahydrofuran]-2-carboxamide] was run?
**A.** The pKi was 6.76.

**Q.** `Cc1ncc2n1CC[C@@H](NC(=O)c1ncn(Cc3c(F)cccc3F)n1)C(=O)N2C` [Example 578, 1-[(2,6-difluorophenyl)methyl]-N-[(3R)-1,7-dimethyl-2-oxo-4,5-dihydro-3H-imidazo[1,5-a][1,3]diazepin-3-yl]-1,2,4-triazole-3-carboxamide] was tested. Which pKi did it give?
**A.** Its pKi is 7.40.

**Q.** `CC[C@H]1C[C@@H](Cn2cnc(C(=O)N[C@H]3CCn4nc(C)cc4N(C)C3=O)n2)C1` [Example 500, N—((S)-2,4-dimethyl-5-oxo-5,6,7,8-tetrahydro-4H-pyrazolo[1,5-a][1,3]diazepin-6-yl)-1-(((1R,3R)-3-ethylcyclobutyl)methyl)-1H-1,2,4-triazole-3-carboxamide] was tested. Which pKi did it give?
**A.** Its pKi is 7.44.

**Q.** How did the pKi turn out when `CN1C(=O)[C@@H](NC(=O)c2nc3n(n2)CCO[C@H]3c2ccccc2)COc2ccccc21` [Example 516, (8S)-8-phenyl-N-[(3S)-5-methyl-4-oxo-2,3-dihydro-1,5-benzoxazepin-3-yl]-6,8-dihydro-5H-[1,2,4]triazolo[5,1-c][1,4]oxazine-2-carboxamide] was run?
**A.** The pKi was 7.74.

**Q.** `CN1C(=O)[C@@H](NC(=O)c2nc3n(n2)CCO[C@@H]3c2ccccc2F)COc2ccccc21` [Example 629, (8R)-8-(2-fluorophenyl)-N-[(3S)-5-methyl-4-oxo-2,3-dihydro-1,5-benzoxazepin-3-yl]-6,8-dihydro-5H-[1,2,4]triazolo[5,1-c][1,4]oxazine-2-carboxamide] was tested. Which pKi did it give?
**A.** The pKi was 7.85.

**Q.** `Cc1cc2n(n1)CC[C@H](NC(=O)c1ncn(Cc3ccccc3C(F)(F)F)n1)C(=O)N2C` [Example 584, N-(6S)-2,4-dimethyl-5-oxo-7,8-dihydro-6H-pyrazolo[1,5-a][1,3]diazepin-6-yl-1-[[2-(trifluoromethyl)phenyl]methyl]-1,2,4-triazole-3-carboxamide] was tested. Which pKi did it give?
**A.** The pKi was 7.60.

**Q.** `CN1C(=O)[C@@H](NC(=O)c2ncc3c(n2)C2(CCC2)OC3)COc2ccccc21` [Example 616, N-[(3S)-5-methyl-4-oxo-2,3-dihydro-1,5-benzoxazepin-3-yl]spiro[5H-furo[3,4-d]pyrimidine-7,1′-cyclobutan]-2-carboxamide] was tested. Which pKi did it give?
**A.** Its pKi is 8.24.

**Q.** `CCc1cc2n(n1)CCC(NC(=O)c1ncn(Cc3ccccc3F)n1)C(=O)N2C` (stereo not shown) [Example 463, N-(2-Ethyl-4-methyl-5-oxo-5,6,7,8-tetrahydro-4H-pyrazolo[1,5-a][1,3]diazepin-6-yl)-1-(2-fluorobenzyl)-1H-1,2,4-triazole-3-carboxamide] was tested. Which pKi did it give?
**A.** Its pKi is 7.35.

**Q.** How did the pKi turn out when `CN1C(=O)[C@@H](NC(=O)c2ncn(CC3CCCO3)n2)CCn2nc(C3CC3)cc21` (stereo partly shown) [Example 470] was run?
**A.** Its pKi is 5.62.

**Q.** How did the pKi turn out when `CC[C@@H]1CCCc2nc(C(=O)N[C@H]3COc4ccccc4N(C)C3=O)nn21` (racemic) [Example 402, (R)-5-ethyl-N—((S)-5-methyl-4-oxo-2,3,4,5-tetrahydrobenzo[b][1,4]oxazepin-3-yl)-5,6,7,8-tetrahydro-[1,2,4]triazolo[1,5-a]pyridine-2-carboxamide] was run?
**A.** Its pKi is 8.06.
